According to article PMC9848300, “Discovery of novel enasidenib analogues targeting inhibition of mutant isocitrate dehydrogenase 2 as antileukaemic agents” (Journal of Enzyme Inhibition and Medicinal Chemistry, 2023):
Read-outs that look alike come from different tables or passages of the source.

Key:
EKVX = assay: NCI 60 antitumor screening (single dose / five doses); format: cell-based; conditions: Homo sapiens, read-out: Growth inhibition percentage (GI %)
MDA-MB-231/ATCC = assay: as above; format: cell-based; conditions: Homo sapiens
RXF 393 = assay: as above; format: cell-based; conditions: Homo sapiens
HCC-2998 = assay: NCI 60 antitumor screening (single dose); format: cell-based; conditions: Homo sapiens; HCC-2998 (colon cancer), single dose 10 μM; read-out: Growth inhibition percentage (GI %)
Method in brief: (§1)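 GI% derived as 100 − G% from triplicate growth measurements in the NCI 60 human tumour panel, compound 10 μM, single dose, per NCI protocol.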

NCI-H460 = assay: NCI 60 antitumor screening (single dose); format: cell-based; conditions: Homo sapiens; NCI-H460 (non-small cell lung cancer), single dose 10 μM; read-out: Growth inhibition percentage (GI %)
Method in brief: as §1

TK-10 = assay: NCI 60 antitumor screening (single dose); format: cell-based; conditions: Homo sapiens; TK-10 (renal cancer), single dose 10 μM; read-out: Growth inhibition percentage (GI %)
Method in brief: (§2)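 Assessment used the first tier of the NCI 60 screen, one dose of 10 μM per compound. Triplicate experiments gave percent growth of treated cells. Inhibition was then derived as 100 − G%.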

OVCAR-8 = assay: NCI 60 antitumor screening (single dose); format: cell-based; conditions: Homo sapiens; OVCAR-8 (ovarian cancer), single dose 10 μM; read-out: Growth inhibition percentage (GI %)
Method in brief: as §2

PC-3 = assay: NCI 60 antitumor screening (single dose); format: cell-based; conditions: Homo sapiens; PC-3 (prostate cancer), single dose 10 μM; read-out: Growth inhibition percentage (GI %)
Method in brief: as §2

HOP-62 = assay: NCI 60 antitumor screening (single dose); format: cell-based; conditions: Homo sapiens; HOP-62 (non-small cell lung cancer), single dose 10 μM; read-out: Growth inhibition percentage (GI %)
Method in brief: as §1

HT29 = assay: NCI 60 antitumor screening (single dose / five doses); format: cell-based, human; conditions: Homo sapiens
UACC-62 = assay: as above; format: cell-based; conditions: Homo sapiens
MOLT-4 = assay: as above; format: cell-based; conditions: Homo sapiens
K-562 = assay: as above; format: cell-based; conditions: Homo sapiens
BT-549 = assay: as above; format: cell-based; conditions: Homo sapiens
SW-620 = assay: as above; format: cell-based, human; conditions: Homo sapiens
LOX IMVI = assay: as above; format: cell-based; conditions: Homo sapiens, read-out: Growth inhibition percentage (GI %)
MDA-MB-468 = assay: as above; format: cell-based; conditions: Homo sapiens
IGROV1 = assay: as above; format: cell-based; conditions: Homo sapiens
HCT-15 = assay: as above; format: cell-based; conditions: Homo sapiens
HL-60(TB) = assay: as above; format: cell-based; conditions: Homo sapiens
ACHN = assay: as above; format: cell-based; conditions: Homo sapiens, read-out: Growth inhibition percentage (GI %)
COLO 205 = assay: as above; format: cell-based; conditions: Homo sapiens
SK-MEL-5 = assay: as above; format: cell-based; conditions: Homo sapiens
SF-295 = assay: as above; format: cell-based; conditions: Homo sapiens
UACC-257 = assay: as above; format: cell-based; conditions: Homo sapiens
RPMI-8226 = assay: as above; format: cell-based; conditions: Homo sapiens
786-0 = assay: as above; format: cell-based; conditions: Homo sapiens
UO-31 = assay: as above; format: cell-based; conditions: Homo sapiens

How did the inhibition at 10 µM (EKVX; EKVX (non-small cell lung cancer), single dose 10 μM) turn out when `Clc1cccc(/C=N/Nc2nc(N/N=C/c3cccc(Cl)c3Cl)nc(N3CCCCC3)n2)c1Cl` [compound 7h, 2,4-Bis[(E)-2-[(2,3-Dichlorophenyl)methylidene]hydrazin-1-yl]-6-(piperidin-1-yl)-1,3,5-triazine] was run?
The inhibition at 10 µM was 11%.

And the inhibition at 10 µM (MDA-MB-231/ATCC; MDA-MB-231/ATCC (breast cancer), single dose 10 μM, read-out: Growth inhibition percentage (GI %))?
Its inhibition at 10 µM is 15.8%.

And the inhibition at 10 µM (RXF 393; RXF 393 (renal cancer), single dose 10 μM, read-out: Growth inhibition percentage (GI %))?
Its inhibition at 10 µM is -11.8%.

And the inhibition at 10 µM (HCC-2998)?
Its inhibition at 10 µM is 2.64%.

What about the inhibition at 10 µM (NCI-H460) of the same compound?
The inhibition at 10 µM was 66.2%.

And the inhibition at 10 µM (TK-10)?
The inhibition at 10 µM was 8.78%.

What about the inhibition at 10 µM (OVCAR-8) of the same compound?
Its inhibition at 10 µM is 27.1%.

And the inhibition at 10 µM (PC-3)?
The inhibition at 10 µM was 29.9%.

And the inhibition at 10 µM (HOP-62)?
The inhibition at 10 µM was 1.81%.

And the inhibition at 10 µM (HT29; HT-29, HT29 (colon cancer), single dose 10 μM, read-out: Growth inhibition percentage (GI %))?
Its inhibition at 10 µM is 15.7%.

What about the inhibition at 10 µM (UACC-62; UACC-62 (melanoma), single dose 10 μM, read-out: Growth inhibition percentage (GI %)) of the same compound?
Its inhibition at 10 µM is 31.7%.

And the inhibition at 10 µM (MOLT-4; MOLT-4 (leukaemia), single dose 10 μM, read-out: Growth inhibition percentage (GI %))?
Its inhibition at 10 µM is 15.7%.

And the inhibition at 10 µM (K-562; K562, K-562 (leukaemia), single dose 10 μM, read-out: Growth inhibition percentage (GI %))?
Its inhibition at 10 µM is 21.9%.

And the inhibition at 10 µM (BT-549; BT-549 (breast cancer), single dose 10 μM, read-out: Growth inhibition percentage (GI %))?
Its inhibition at 10 µM is 2.7%.

And the inhibition at 10 µM (SW-620; SW-620 (colon cancer), single dose 10 μM, read-out: Growth inhibition percentage (GI %))?
The inhibition at 10 µM was 57.4%.

And the inhibition at 10 µM (LOX IMVI; LOX IMVI (melanoma), single dose 10 μM)?
Its inhibition at 10 µM is 31.7%.

What about the inhibition at 10 µM (MDA-MB-468; MDA-MB-468 (breast cancer), single dose 10 μM, read-out: Growth inhibition percentage (GI %)) of the same compound?
Its inhibition at 10 µM is 7.19%.

What about the inhibition at 10 µM (IGROV1; IGROV-1, IGROV1 (ovarian cancer), single dose 10 μM, read-out: Growth inhibition percentage (GI %)) of the same compound?
Its inhibition at 10 µM is 20.4%.

And the inhibition at 10 µM (HCT-15; HCT-15 (colon cancer), single dose 10 μM, read-out: Growth inhibition percentage (GI %))?
The inhibition at 10 µM was 34.5%.

And the inhibition at 10 µM (HL-60(TB); HL-60(TB) (leukaemia), single dose 10 μM, read-out: Growth inhibition percentage (GI %))?
The inhibition at 10 µM was -6.32%.

And the inhibition at 10 µM (ACHN; ACHN (renal cancer), single dose 10 μM)?
Its inhibition at 10 µM is 16.3%.

What about the inhibition at 10 µM (COLO 205; COLO 205 (colon cancer), single dose 10 μM, read-out: Growth inhibition percentage (GI %)) of the same compound?
The inhibition at 10 µM was 9.72%.

What about the inhibition at 10 µM (SK-MEL-5; SK-MEL-5 (melanoma), single dose 10 μM, read-out: Growth inhibition percentage (GI %)) of the same compound?
The inhibition at 10 µM was 0.02%.

And the inhibition at 10 µM (SF-295; SF-295 (CNS cancer), single dose 10 μM, read-out: Growth inhibition percentage (GI %))?
The inhibition at 10 µM was 7.34%.

And the inhibition at 10 µM (UACC-257; UACC-257 (melanoma), single dose 10 μM, read-out: Growth inhibition percentage (GI %))?
Its inhibition at 10 µM is 10.2%.

And the inhibition at 10 µM (RPMI-8226; RPMI-8226 (leukaemia), single dose 10 μM, read-out: Growth inhibition percentage (GI %))?
The inhibition at 10 µM was 6.61%.

What about the inhibition at 10 µM (786-0; 786-0, 786-0 (renal cancer), single dose 10 μM, read-out: Growth inhibition percentage (GI %)) of the same compound?
Its inhibition at 10 µM is -1.71%.

And the inhibition at 10 µM (UO-31; UO-31 (renal cancer), single dose 10 μM, read-out: Growth inhibition percentage (GI %))?
Its inhibition at 10 µM is 6.76%.

What does the source list for `O=[N+]([O-])c1cccc(/C=N/Nc2nc(N/N=C/c3cccc([N+](=O)[O-])c3)nc(N3CCCCC3)n2)c1` [compound 7f, 2,4-Bis[(E)-2-[(3-Nitrophenyl)methylidene]hydrazin-1-yl]-6-(piperidin-1-yl)-1,3,5-triazine]?
inhibition at 10 µM (EKVX; EKVX): 34.9%; inhibition at 10 µM (MDA-MB-231/ATCC; MDA-MB-231, read-out: Growth inhibition percentage (GI %)): 0.87%; inhibition at 10 µM (RXF 393; RXF 393, read-out: Growth inhibition percentage (GI %)): -3.98%; inhibition at 10 µM (HCC-2998): 5.6%; inhibition at 10 µM (NCI-H460): 31.3%; inhibition at 10 µM (TK-10): -9.28%; inhibition at 10 µM (OVCAR-8): 48.9%; inhibition at 10 µM (PC-3): 51.4%; inhibition at 10 µM (HOP-62): 41.5%; inhibition at 10 µM (HT29; HT-29, read-out: Growth inhibition percentage (GI %)): 36.3%; inhibition at 10 µM (UACC-62; UACC-62, read-out: Growth inhibition percentage (GI %)): 43.7%; inhibition at 10 µM (MOLT-4; MOLT-4, read-out: Growth inhibition percentage (GI %)): 57.2%; inhibition at 10 µM (K-562; K562, read-out: Growth inhibition percentage (GI %)): 67.6%; inhibition at 10 µM (BT-549; BT-549, read-out: Growth inhibition percentage (GI %)): 28.2%; inhibition at 10 µM (SW-620; SW-620, read-out: Growth inhibition percentage (GI %)): 16.5%; inhibition at 10 µM (LOX IMVI; LOX IMVI): 49.1%; inhibition at 10 µM (MDA-MB-468; MDA-MB-468, read-out: Growth inhibition percentage (GI %)): 26.4%; inhibition at 10 µM (IGROV1; IGROV-1, read-out: Growth inhibition percentage (GI %)): 51.3%; inhibition at 10 µM (HCT-15; HCT-15, read-out: Growth inhibition percentage (GI %)): 53.5%; inhibition at 10 µM (HL-60(TB); HL-60, read-out: Growth inhibition percentage (GI %)): 42.8%; inhibition at 10 µM (ACHN; ACHN): 37.8%; inhibition at 10 µM (COLO 205; COLO 205, read-out: Growth inhibition percentage (GI %)): 24.1%; inhibition at 10 µM (SK-MEL-5; SK-MEL-5, read-out: Growth inhibition percentage (GI %)): 52.4%; inhibition at 10 µM (SF-295; SF-295, read-out: Growth inhibition percentage (GI %)): 28.3%; inhibition at 10 µM (UACC-257; UACC-257, read-out: Growth inhibition percentage (GI %)): 4.25%; inhibition at 10 µM (RPMI-8226; RPMI-8226, read-out: Growth inhibition percentage (GI %)): 69.3%; inhibition at 10 µM (786-0; 786-0, read-out: Growth inhibition percentage (GI %)): -6.21%; inhibition at 10 µM (UO-31; UO-31, read-out: Growth inhibition percentage (GI %)): 48.4%
